# Values of other authors, collected in patent publication US20240100069A1, “Methods and Compositions for Treating Amyotrophic Lateral Sclerosis” (Amylyx Pharmaceuticals, Inc., priority 2022, published 2024).
# Legend:
# [1] = test system: G393A SODI mouse model of ALS
# [2] = in vivo
# CYP 1A2 = biological target: T1, CYP 1A2 (Homo sapiens, UniProt P05177); settings: at 20 times the intended clinical concentration (Cmax)
# T1 sequence (P05177 1-516): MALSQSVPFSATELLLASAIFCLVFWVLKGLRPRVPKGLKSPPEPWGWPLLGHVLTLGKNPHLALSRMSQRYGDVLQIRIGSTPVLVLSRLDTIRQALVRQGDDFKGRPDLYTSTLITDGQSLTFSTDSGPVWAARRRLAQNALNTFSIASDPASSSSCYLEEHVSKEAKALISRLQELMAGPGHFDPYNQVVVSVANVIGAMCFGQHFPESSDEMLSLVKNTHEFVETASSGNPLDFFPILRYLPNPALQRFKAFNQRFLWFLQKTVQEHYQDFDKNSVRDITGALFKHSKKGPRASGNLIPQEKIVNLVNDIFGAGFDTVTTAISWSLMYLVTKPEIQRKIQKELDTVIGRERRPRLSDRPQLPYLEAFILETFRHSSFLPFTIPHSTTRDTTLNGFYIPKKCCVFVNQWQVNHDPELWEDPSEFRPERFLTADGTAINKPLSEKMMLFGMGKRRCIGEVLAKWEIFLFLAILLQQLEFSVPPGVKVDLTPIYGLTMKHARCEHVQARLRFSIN
# CYP 2D6 = CYP 2D6 (Homo sapiens, UniProt P10635); settings: at 20 times the intended clinical concentration (Cmax)
# CYP 2D6, sequence (P10635 whole entry): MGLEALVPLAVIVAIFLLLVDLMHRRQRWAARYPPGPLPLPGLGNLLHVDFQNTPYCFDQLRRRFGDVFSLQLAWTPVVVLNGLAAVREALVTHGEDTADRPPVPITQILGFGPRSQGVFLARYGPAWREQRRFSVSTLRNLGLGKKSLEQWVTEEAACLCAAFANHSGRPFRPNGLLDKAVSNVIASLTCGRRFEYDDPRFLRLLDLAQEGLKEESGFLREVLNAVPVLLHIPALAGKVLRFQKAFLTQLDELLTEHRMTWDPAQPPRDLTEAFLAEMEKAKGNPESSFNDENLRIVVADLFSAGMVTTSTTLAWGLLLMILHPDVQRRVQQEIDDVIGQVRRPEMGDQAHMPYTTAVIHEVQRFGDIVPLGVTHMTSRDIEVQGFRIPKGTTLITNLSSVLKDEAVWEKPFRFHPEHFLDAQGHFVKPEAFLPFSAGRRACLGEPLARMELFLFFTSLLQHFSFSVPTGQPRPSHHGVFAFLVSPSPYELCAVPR
molecule,measurement,setting,value
"O=C(O)CCCc1ccccc1 [Phenylbutyrate, sodium phenylbutyrate]",survival in in vivo models,[1],increase survival
"C[C@H](CCC(=O)NCCS(=O)(=O)O)[C@H]1CC[C@H]2[C@@H]3[C@@H](O)C[C@@H]4C[C@H](O)CC[C@]4(C)[C@H]3CC[C@]12C [TURSO, tauroursodeoxycholic acid]","most common adverse reactions reported (abdominal discomfort, abdominal pain, diarrhea, nausea, pruritus, rash), frequency",[2],≥ 1%
Phenylacetylacetate,inhibition of CYP 1A2,CYP 1A2,inhibitory
same,inhibition of CYP 2D6,CYP 2D6,inhibitory
